Source: patent US20100003208A1, “Skin Care Products, As Well As Foods and Beverages Containing 6-O-PUFA Ascorbic Esters” (Suntory Holdings Limited, priority 2004, published 2010)

What was measured:
[1] = tested on: streptozotocin-induced diabetic model; details: in vivo; cited from earlier work
[2] = molecular target: aldose reductase (Homo sapiens, UniProt P15121); details: cited from earlier work
[3] = tested on: human skin strips; experiment: Permeability of ascorbic acid to the tissue of human skin strips (modified Bronov diffusion cell); format: in vitro ADME; details: 100 mM (3.38% w/w; PBS(−)) on keratinized layer, re-dosed at 4 and 17 h, 24 hours; compared with unmodified vitamin C; FIG. 3
Description: A human skin section extracted from the right abdominal part of a volunteer with an informed consent was vertically split into small strips, which were set in a modified Bronov diffusion cell chamber. With the underside of the skin immersed in DMEM (2 mL) to supply nutrients, the keratinized layer was aerated with 5% CO2 to maintain the pH of the medium at 7.25. […] The total quantity of vitamin C (the sum of reduced and oxidized forms of vitamin C) and the quantity of reduced form of vitamin C in the epidermis and the dermis were measured; the total quantity of vitamin C was measured in the presence of 16 mM dithiothreitol as a reducing agent, whereas the quantity of reduced form of vitamin C was measured without adding any such reducing agent. The measured values were used to calculate the proportion of total vitamin C as occupied by reduced form of vitamin C. Similarly, 6-O-arachidonoyl ascorbate and 6-O-docosahexaenoyl ascorbate, as well as ascorbic acid (comparison) were evaluated and the results are also shown in FIG. 3.

[4] = tested on: human skin keratocytes HaCaT; experiment: Protective effect on apoptosis of HaCaT keratocytes under UVA irradiation (WST-1 viability); format: cell-based; details: 200 μM added 2 hours before 32-48 mJ/cm^2 UVA; WST-1 24 hours after irradiation; FIG. 2
Description: Human skin keratocytes HaCaT (the cell line granted by courtesy of Dr. Fusenig at University of Heidelberg) were inoculated on a 24-well plate at a density of 10,000 cells/well in a 10% fetal bovine serum (FBS) containing Dulbecco modified Eagle medium (DMEM); 18 hours later, the medium was irradiated with 32-48 mJ/cm^2 of UVA. Two hours before the irradiation, 100-200 μM of 6-O-dihomo-γ-linolenoyl ascorbate had been added to the medium but it was removed just before the irradiation and the medium was rinsed. UVA irradiation was performed in PBS but in the absence of the drug; after the irradiation, culture was continued in the 10% FBS containing DMEM and 24 hours after the irradiation, the cell viability was evaluated by a mitochondrial dehydrogenase activity assay method using 2-(4-iodophenyl)-3-(4-nitrophenyl)-5-(2,4-disulfophenyl)-2H-tetrazolium monosodium salt (WST-1).

amount of vitamin C in the dermis [3] | SMILES | efficacy in streptozotocin-induced diabetic model [1] | aldose reductase inhibitory action [2] | viability of human skin keratocytes [4]
– | CCCCC/C=C\C/C=C\C/C=C\CCCCC(=O)OC[C@H](O)[C@H]1OC(=O)C(O)=C1O [6-O-γ-linolenoyl ascorbate] | effective | aldose reductase inhibitory action | –
increased markedly | CCCCC/C=C\C/C=C\C/C=C\C/C=C\CCCC(=O)OC[C@H](O)[C@H]1OC(=O)C(O)=C1O [6-O-arachidonoyl ascorbate] | – | – | –
increased markedly | CCCCC/C=C\C/C=C\C/C=C\CCCCCCC(=O)OC[C@H](O)[C@H]1OC(=O)C(O)=C1O [6-O-dihomo-γ-linolenoyl ascorbate] | – | – | improved the viability
